{"source": "patent US11414443B2", "about": "“Phospholipid derivatives and their use as medicaments” (USTAV MOLEKULARNI GENETIKY AV CR, V.V.I., priority 2017, dated 2022)", "key": {"C32 (human melanoma)": {"tested_on": "C32 (human melanoma)", "test": "Cytotoxicity in C32 tumor cell culture, ATP content", "type": "cell-based", "conditions": "C32 cells, 16 hours of culture", "method": "(§1) After 16 hours of culture, cell state was recorded.\n(§2) The cytotoxicity of the products was quantified by determining the ATP content in the cells and using neutral red intake, and the IC50ATP and IC50NR [μM] were determined."}, "[1]": {"tested_on": "TIB-75 (inducing murine hepatocarcinoma)", "test": "Cytotoxicity in TIB-75 tumor cell culture, ATP content", "type": "cell-based", "conditions": "TIB-75 cells, 16 hours of culture", "method": "as §1, §2"}, "[2]": {"tested_on": "LMH (chicken hepatocarcinoma)", "test": "cells", "type": "cell-based", "conditions": "16 hours of culture, ATP content", "method": "(§3) The cytotoxic activity of the products was tested in tumor cell cultures C32 (human melanoma), TIB-75 (inducing murine hepatocarcinoma), LMH (chicken hepatocarcinoma).\nB) LMH cells were cultured in D-MEM medium containing 10% fetal serum and penicillin+streptomycin at 37° C. in air/5% CO2 atmosphere saturated with water vapor. Each well contained 5×10^4 cells and 0.5 ml medium. […] After 16 hours of culture, cell state was recorded.\nas §2"}, "[3]": {"tested_on": "mammary gland 4T1 cancer cell line", "test": "Crystal violet cytotoxicity assay, E-DAPL/Dox combination", "type": "cell-based", "conditions": "for IC50: Mus musculus", "method": "The potentiation of cytotoxic effect of E-DAPL/Dox combination was evaluated. The dose-effect relationship of individual drugs and E-DAPL/Dox mixture (ratio 202:1 was tested) was determined on mammary gland 4T1 cancer cell line by means of crystal violet assay (three measurements). The linearized Median-Effect Plot of dose response line provided both parameters (IC50; trend line m value) of Median-Effect Equation for individual and combination treatment [ref: Theoretical basis, experimental design, and computerized simulation of synergism and antagonism in drug combination studies; Ting-Chao Chou: Pharmacol Rev. 58(3), 2006, 621-81; Erratum in Pharmacol Rev. 2007; 59(1), 124]:\nPotentiation of combination effect of E-DAPL/Dox/202:1 was expressed for the concentrations IC1 to IC60 by calculation of Combination index (CI) applying Combination Index Theorem for mutually nonexclusive drugs that obey higher order conditions [ref: Quantitative analysis of dose-effect relationships: the combined effects of multiple drugs or enzyme inhibitors; Ting-Chao Chou, Paul Talalay: Advances in Enzyme Regulation, Volume 22, 1984, Pages 27-55]: […]"}, "[4]": {"tested_on": "tumor cell cultures C32, TIB-75, LMH", "test": "Cell state and growth in tumor cell cultures, controls and comparison products", "conditions": "0-240 μM, 16 hours of culture", "method": "As a control, the starting phospholipids were used at the same concentrations and conditions.\nas §3\n(§4) A) C32 cells were cultured in D-MEM medium containing 10% fetal serum and penicillin+streptomycin at 37° C. in air/5% CO2 atmosphere saturated with water vapor. Each well contained 5×10^4 cells and 0.5 ml medium. The tested products were added to the cells at concentrations of 0, 2.5, 5, 10, 20, 40, 80, 160 and 240 μM. After 16 hours of culture, cell state was recorded.\nas §4, with “B) LMH” for “A) C32”, “phospholipids” for “products”\nas §4, with “C) TIB-75” for “A) C32”, “phospholipids” for “products”"}}, "note": "Read-outs that look alike come from different tables or passages of the source."}
{"molecule": "1-acyl-lysophosphatidylethanolamine [PE/E-DAPL]", "values": [{"measurement": "IC50", "setting": "C32 (human melanoma)", "result": 35, "unit": "µM"}, {"measurement": "IC50", "setting": "[1]", "result": 35, "unit": "µM"}, {"measurement": "IC50", "setting": "[2]", "result": 30, "unit": "µM"}]}
{"molecule": "COc1cccc2c1C(=O)c1c(O)c3c(c(O)c1C2=O)C[C@@](O)(C(=O)CO)C[C@@H]3O[C@H]1C[C@H](N)[C@H](O)[C@H](C)O1", "note": "[Dox, doxorubicin]", "values": [{"measurement": "concentration of Dox at IC25", "setting": "[3]; 4T1 cell line, Dox alone or within E-DAPL/Dox 202:1", "result": 0.2306, "unit": "µM"}, {"measurement": "IC50", "setting": "[3]; 4T1 cell line, Dox alone or within E-DAPL/Dox 202:1, read-out: concentration of Dox at IC50 level", "result": 0.93, "unit": "µM"}, {"measurement": "IC50", "setting": "[3]; 4T1 cells, crystal violet assay, calculated from the Median-Effect Plot, read-out: IC50", "result": 0.93, "unit": "µM"}]}
{"molecule": "2-acyl-lysophosphatidylcholine [2-acyl PC (15-20% 1-acyl PC), reference compound]", "values": [{"measurement": "IC50", "setting": "C32 (human melanoma)", "result": 200, "unit": "µM"}, {"measurement": "IC50", "setting": "[1]", "result": 210, "unit": "µM"}]}
{"molecule": "CC(CC(=O)OCC(O)COP(=O)([O-])OCC[N+](C)(C)C)CC(C)(C)C", "note": "(stereo not drawn) [sn-1 trimethylhexanoyl PC/E-DAPL]", "values": [{"measurement": "IC50", "setting": "C32 (human melanoma); Homo sapiens", "result": 130, "unit": "µM"}, {"measurement": "IC50", "setting": "[2]; Gallus gallus", "result": 140, "unit": "µM"}]}
{"molecule": "C[N+](C)(C)CCOP(=O)([O-])OCC(O)COC(=O)CCC1CCCC1", "note": "(stereo not drawn) [sn-1 cyclopentanepropionyl PC/E-DAPL]", "values": [{"measurement": "IC50", "setting": "C32 (human melanoma); Homo sapiens", "result": 150, "unit": "µM"}, {"measurement": "IC50", "setting": "[2]; Gallus gallus", "result": 130, "unit": "µM"}]}
{"molecule": "1-acyl-lysophosphatidylcholine [PC/E-DAPL]", "values": [{"measurement": "IC50", "setting": "C32 (human melanoma)", "result": 50, "unit": "µM"}, {"measurement": "IC50", "setting": "[1]", "result": 45, "unit": "µM"}, {"measurement": "IC50", "setting": "[2]", "result": 35, "unit": "µM"}]}
{"molecule": "CCCCCCCCCCCCCCCCCC(=O)OCC(O)COP(=O)([O-])OCC[N+](C)(C)C", "note": "(stereo not drawn) [sn-1 stearoyl PC/E-DAPL]", "values": [{"measurement": "IC50", "setting": "C32 (human melanoma); Homo sapiens", "result": 45, "unit": "µM"}, {"measurement": "IC50", "setting": "[1]; Mus musculus", "result": 45, "unit": "µM"}, {"measurement": "IC50", "setting": "[2]; Gallus gallus", "result": 40, "unit": "µM"}]}
{"molecule": "phosphatidylethanolamine [PE]", "values": [{"measurement": "cytotoxic activity: effect on phenotype and rate of cell growth", "setting": "[4]", "result": "did not affect the phenotype or reduce the rate of cell growth"}]}
{"molecule": "CCCCCC(=O)OCC(O)COP(=O)([O-])OCC[N+](C)(C)C", "note": "(stereo not drawn) [sn-1 hexanoyl PC/E-DAPL]", "values": [{"measurement": "IC50", "setting": "C32 (human melanoma); Homo sapiens", "result": 130, "unit": "µM"}, {"measurement": "IC50", "setting": "[1]; Mus musculus", "result": 135, "unit": "µM"}, {"measurement": "IC50", "setting": "[2]; Gallus gallus", "result": 135, "unit": "µM"}]}
{"molecule": "phosphatidylcholine [PC]", "values": [{"measurement": "cytotoxic activity: effect on phenotype and rate of cell growth", "setting": "[4]", "result": "did not affect the phenotype or reduce the rate of cell growth"}]}
{"molecule": "1-stearoyl-phosphatidylcholine [sn-1 stearoyl PC]", "values": [{"measurement": "cytotoxic activity: effect on phenotype and rate of cell growth", "setting": "[4]", "result": "did not affect the phenotype or reduce the rate of cell growth"}]}
